Reference: patent publication US8119563B2, “N-substituted azacycles” (FMC Corporation, priority 2003, dated 2012)

Tested on: tobacco budworm (Heliothis virescens [Fabricius])
Experiment: surface-treated diet test, insecticidal activity against tobacco budworm
Format: in vivo
Settings: 0.25 millimoles of candidate insecticide on the surface of the diet, second instar larvae, five-day exposure; for Percent Mortality: compared to total number of insects infested; for Percent Growth Inhibition: inhibition of insect weight relative to untreated controls
Method in brief: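 Second-instar larvae (~5 mg) were held five days at 25° C and 60% RH on artificial diet whose surface carried dried compound (0.25 millimolar standard rate; DMSO serial dilutions for rate series, six replicates each). Readouts: mortality and weight inhibition relative to DMSO-treated controls.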

Row | Structure (SMILES) | Percent Mortality [%] | Percent Growth Inhibition [%]
1 | CCON=Cc1ccc(C[N+]2([O-])CCC(O)(C(c3ccc(OC(F)(F)F)cc3)c3ccc(Cl)cc3Cl)CC2)cc1 (stereo not shown) [Compound 453] | 100 | 100
2 | [O-][N+]1(Cc2ccc(Oc3ccccn3)cc2)CCC(O)(C(c2ccc(OC(F)(F)F)cc2)c2ccc(Cl)cc2Cl)CC1 (stereo not shown) [Compound 454] | 100 | 100
3 | [O-][N+]1(Cc2ccc(Oc3ccccn3)cc2)CCC(O)(C(c2ccc(OC(F)(F)F)cc2)c2ccc(Cl)c(Cl)c2)CC1 (stereo not shown) [Compound 455] | 100 | 100
4 | [O-][N+]1(Cc2ccc(Oc3ccccn3)cc2)CCC(O)(C(c2ccc(OC(F)(F)F)cc2)c2cccc(Cl)c2Cl)CC1 (stereo not shown) [Compound 456] | 100 | 100
5 | [O-][N+]1(Cc2ccc(Oc3ccccn3)cc2)CCC(O)(C(c2ccc(OC(F)(F)F)cc2)c2cc(Cl)cc(Cl)c2)CC1 (stereo not shown) [Compound 457] | 100 | 100
6 | [O-][N+]1(Cc2ccc(Oc3ccccn3)cc2)CCC(O)(C(c2ccc(OC(F)(F)F)cc2)c2cccc(Cl)c2)CC1 (stereo not shown) [Compound 458] | 100 | 100
7 | [O-][N+]1(Cc2ccc(Oc3ccccn3)cc2)CCC(O)(C(c2ccc(OC(F)(F)F)cc2)c2ccccc2Cl)CC1 (stereo not shown) [Compound 459] | 100 | 100
8 | [O-][N+]1(Cc2ccc(Oc3ccccn3)cc2)CCC(O)(C(c2ccc(OC(F)(F)F)cc2)c2cc(Cl)ccc2Cl)CC1 (stereo not shown) [Compound 460] | 100 | 100
9 | Cc1cc(Cl)ccc1C(c1ccc(OC(F)(F)F)cc1)C1(O)CC[N+]([O-])(Cc2ccc(Oc3ccccn3)cc2)CC1 (stereo not shown) [Compound 461] | 100 | 100
10 | Cc1cc(C(c2ccc(OC(F)(F)F)cc2)C2(O)CC[N+]([O-])(Cc3ccc(Oc4ccccn4)cc3)CC2)ccc1Cl (stereo not shown) [Compound 462] | 100 | 100
11 | [O-][N+]1(Cc2ccc(Oc3ccccn3)cc2)CCC(O)(C(c2ccc(OC(F)(F)F)cc2)c2ccc(Cl)cc2F)CC1 (stereo not shown) [Compound 463] | 100 | 100
12 | [O-][N+]1(Cc2ccc(Oc3ccccn3)cc2)CCC(O)(C(c2ccc3c(c2)OC(F)(F)O3)c2ccc3c(c2)OC(F)(F)O3)CC1 (stereo not shown) [Compound 464] | 100 | 100
13 | COc1cc(C[N+]2([O-])CCC(O)(C(c3ccc(OC(F)(F)F)cc3)c3ccc(OC(F)(F)F)cc3)CC2)ccc1Oc1ccccn1 (stereo not shown) [Compound 465] | 100 | 100
14 | CC(=O)NCC1(C(c2ccc(C(F)(F)F)cc2)c2ccc(C(F)(F)F)cc2)CC[N+]([O-])(Cc2ccc(Oc3ncccn3)cc2)CC1 (stereo not shown) [Compound 466] | 17 | 100
15 | [N-]=[N+]=NCC1(C(c2ccc(C(F)(F)F)cc2)c2ccc(C(F)(F)F)cc2)CC[N+]([O-])(Cc2ccc(OCC3CC3)cc2)CC1 (stereo not shown) [Compound 467] | 50 | 100
16 | CC(=O)OCC1(C(c2ccc(C(F)(F)F)cc2)c2ccc(C(F)(F)F)cc2)CC[N+]([O-])(Cc2ccc(Oc3ncccn3)cc2)CC1 (stereo not shown) [Compound 468] | 17 | 100
17 | OC(COc1ccc(Cl)cc1)CN1CCC(O)(C(c2ccc(OC(F)(F)F)cc2)c2ccc(OC(F)(F)F)cc2)CC1 (stereo not shown) [Compound 470] | 17 | 89
18 | OC(COc1cccc(Cl)c1)CN1CCC(O)(C(c2ccc(OC(F)(F)F)cc2)c2ccc(OC(F)(F)F)cc2)CC1 (stereo not shown) [Compound 471] | 0 | 82
19 | OC(COc1ccccc1Cl)CN1CCC(O)(C(c2ccc(OC(F)(F)F)cc2)c2ccc(OC(F)(F)F)cc2)CC1 (stereo not shown) [Compound 472] | 17 | 93
20 | OC1(C(c2ccc(OC(F)(F)F)cc2)c2ccc(OC(F)(F)F)cc2)CCN(CCCOc2ccc(Cl)cc2)CC1 [Compound 473] | 100 | 100
21 | OC1(C(c2ccc(OC(F)(F)F)cc2)c2ccc(OC(F)(F)F)cc2)CCN(CCc2ccc(Cl)cc2)CC1 [Compound 474] | 83 | 100
22 | OC1(C(c2ccc(OC(F)(F)F)cc2)c2ccc(OC(F)(F)F)cc2)CCN(CCOc2ccc(Cl)cc2)CC1 [Compound 475] | 100 | 100

Row | Structure (SMILES) | Percent Mortality [%] | Percent Growth Inhibition [%]
23 | OC1(C(c2ccc(OC(F)(F)F)cc2)c2ccc(OC(F)(F)F)cc2)CCN(CCCCOc2ccc(Cl)cc2)CC1 [Compound 476] | 67 | 100
24 | OC1(C(c2ccc(OC(F)(F)F)cc2)c2ccc(OC(F)(F)F)cc2)CCN(CCOc2ccc(Br)cc2)CC1 [Compound 477] | 100 | 100
25 | [O-][N+]1(CCOc2ccc(Cl)cc2)CCC(O)(C(c2ccc(OC(F)(F)F)cc2)c2ccc(OC(F)(F)F)cc2)CC1 (stereo not shown) [Compound 478] | 100 | 100
26 | [O-][N+]1(CCc2ccc(Cl)cc2)CCC(O)(C(c2ccc(OC(F)(F)F)cc2)c2ccc(OC(F)(F)F)cc2)CC1 (stereo not shown) [Compound 479] | 100 | 100
27 | [O-][N+]1(CCCCOc2ccc(Cl)cc2)CCC(O)(C(c2ccc(OC(F)(F)F)cc2)c2ccc(OC(F)(F)F)cc2)CC1 (stereo not shown) [Compound 480] | 100 | 100
28 | [O-][N+]1(CCCOc2ccc(Cl)cc2)CCC(O)(C(c2ccc(OC(F)(F)F)cc2)c2ccc(OC(F)(F)F)cc2)CC1 (stereo not shown) [Compound 481] | 100 | 100
29 | [O-][N+]1(CCOc2ccc(Br)cc2)CCC(O)(C(c2ccc(OC(F)(F)F)cc2)c2ccc(OC(F)(F)F)cc2)CC1 (stereo not shown) [Compound 482] | 100 | 100
30 | CCON=Cc1ccc(C[N+]2(O)CCC(O)(C(c3ccc(OC(F)(F)F)cc3)c3ccc(OC(F)(F)F)cc3)CC2)cc1.O=S(=O)([O-])CCCO (stereo not shown) [Compound 483] | 100 | 100
31 | CCOC(C)C(=O)[O-].CCON=Cc1ccc(C[N+]2(O)CCC(O)(C(c3ccc(OC(F)(F)F)cc3)c3ccc(OC(F)(F)F)cc3)CC2)cc1 (stereo not shown) [Compound 484] | 100 | 100
32 | CCCCC(CC)C(=O)[O-].OC1(C(c2ccc(OC(F)(F)F)cc2)c2ccc(OC(F)(F)F)cc2)CC[N+](O)(Cc2ccc(Oc3ccc(Cl)nn3)cc2)CC1 (stereo not shown) [Compound 485] | 100 | 100
33 | CCCCC(CC)C(=O)[O-].CCON=Cc1ccc(C[N+]2(O)CCC(O)(C(c3ccc(OC(F)(F)F)cc3)c3ccc(OC(F)(F)F)cc3)CC2)cc1 (stereo not shown) [Compound 486] | 100 | 100
34 | CCON=Cc1ccc(C[N+]2(O)CCC(O)(C(c3ccc(OC(F)(F)F)cc3)c3ccc(OC(F)(F)F)cc3)CC2)cc1.O=S(=O)([O-])C(F)(F)C(F)(F)C(F)(F)C(F)(F)F (stereo not shown) [Compound 487] | 100 | 100
35 | O=C(O)CC(O)(CC(=O)O)C(=O)[O-].OC1(C(c2ccc(C(F)(F)F)cc2)c2ccc(C(F)(F)F)cc2)CC[N+](O)(Cc2ccc(Oc3ccc(Cl)nn3)cc2)CC1 (stereo not shown) [Compound 488] | 100 | 100
36 | NC(=O)CON=Cc1ccc(C[N+]2(O)CCC(O)(C(c3ccc(OC(F)(F)F)cc3)c3ccc(OC(F)(F)F)cc3)CC2)cc1.O=C(O)CC(O)(CC(=O)O)C(=O)[O-] (stereo not shown) [Compound 489] | 100 | 100
37 | CC1(C)[C@@H]2CCC1(CS(=O)(=O)[O-])C(=O)C2.CCON=Cc1ccc(C[N+]2(O)CCC(O)(C(c3ccc(OC(F)(F)F)cc3)c3ccc(OC(F)(F)F)cc3)CC2)cc1 (stereo not shown) [Compound 490] | 100 | 100
38 | CCON=Cc1ccc(C[N+]2(O)CCC(O)(C(c3ccc(OC(F)(F)F)cc3)c3ccc(OC(F)(F)F)cc3)CC2)cc1.CCS(=O)(=O)[O-] (stereo not shown) [Compound 491] | 100 | 100
39 | O=C(O)CC(O)(CC(=O)O)C(=O)[O-].OC1(C(c2ccc(OC(F)(F)F)cc2)c2ccc(OC(F)(F)F)cc2)CC[N+](O)(Cc2ccc(Oc3ccc(Cl)nn3)cc2)CC1 (stereo not shown) [Compound 492] | 100 | 100
40 | CCON=Cc1ccc(C[N+]2(O)CCC(O)(C(c3ccc(OC(F)(F)F)cc3)c3ccc(OC(F)(F)F)cc3)CC2)cc1.O=C([O-])C1CCCCC1 (stereo not shown) [Compound 493] | 100 | 100
41 | CCON=Cc1ccc(C[N+]2(O)CCC(O)(C(c3ccc(OC(F)(F)F)cc3)c3ccc(OC(F)(F)F)cc3)CC2)cc1.O=C(O)CC(O)(CC(=O)O)C(=O)[O-] (stereo not shown) [Compound 494] | 100 | 100
42 | CCON=Cc1ccc(C[N+]2(O)CCC(O)(C(c3ccc(OC(F)(F)F)cc3)c3ccc(OC(F)(F)F)cc3)CC2)cc1.O=S(=O)([O-])C(F)(F)C(F)(F)C(F)(F)C(F)(F)C(F)(F)C(F)(F)C(F)(F)C(F)(F)F (stereo not shown) [Compound 495] | 100 | 100
43 | O=S(=O)([O-])C(F)(F)C(F)(F)C(F)(F)C(F)(F)C(F)(F)C(F)(F)C(F)(F)C(F)(F)F.OC1(C(c2ccc(OC(F)(F)F)cc2)c2ccc(OC(F)(F)F)cc2)CC[N+](O)(Cc2ccc(Oc3ccccn3)cc2)CC1 (stereo not shown) [Compound 496] | 100 | 100
44 | OC1(C(c2ccc(OC(F)(F)F)cc2)c2ccc(OC(F)(F)F)cc2)CC[N+](O)(Cc2ccc(Oc3ccccn3)cc2)CC1.[Cl-] (stereo not shown) [Compound 497] | 100 | 100
